Data reported in PMC5947877 (Phytomedicine : international journal of phytotherapy and …, 2017).
“Also recorded” adds a separate entry of the source.

Legend:
recombinant human MAO-A [1] = biological target: T1, recombinant human MAO-A (Homo sapiens, UniProt P21397); assay: Enzyme kinetics and mechanism of inhibition with MAO-A; assay type: biochemical; conditions: for Type of Inhibition, Monoamine oxidase-A: Lineweaver-Burk analysis, reversibility from dialysis
T1 sequence (P21397 1-527): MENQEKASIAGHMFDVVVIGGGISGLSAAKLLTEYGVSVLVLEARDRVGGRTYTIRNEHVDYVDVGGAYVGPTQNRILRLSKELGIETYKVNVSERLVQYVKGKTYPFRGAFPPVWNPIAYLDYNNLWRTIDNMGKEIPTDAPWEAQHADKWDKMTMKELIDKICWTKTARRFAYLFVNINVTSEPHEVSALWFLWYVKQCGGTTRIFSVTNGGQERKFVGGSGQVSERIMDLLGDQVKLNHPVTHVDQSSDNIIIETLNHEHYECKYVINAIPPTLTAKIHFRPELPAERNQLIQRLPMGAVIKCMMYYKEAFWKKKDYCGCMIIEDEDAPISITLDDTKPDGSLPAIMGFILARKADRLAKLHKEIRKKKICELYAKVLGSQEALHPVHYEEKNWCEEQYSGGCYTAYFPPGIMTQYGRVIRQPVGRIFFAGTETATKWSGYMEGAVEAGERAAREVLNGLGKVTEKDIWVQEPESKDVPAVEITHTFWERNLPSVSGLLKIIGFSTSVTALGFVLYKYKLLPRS

recombinant human MAO-A [2] = biological target: T1, recombinant human MAO-A; conditions: dialysis 14-16 h at 4 °C
recombinant human MAO-B = biological target: T2, recombinant human MAO-B (Homo sapiens, UniProt P27338); assay: Fluorometric kynuramine deamination assay, MAO-B inhibition; assay type: biochemical
T2 sequence (P27338 1-520): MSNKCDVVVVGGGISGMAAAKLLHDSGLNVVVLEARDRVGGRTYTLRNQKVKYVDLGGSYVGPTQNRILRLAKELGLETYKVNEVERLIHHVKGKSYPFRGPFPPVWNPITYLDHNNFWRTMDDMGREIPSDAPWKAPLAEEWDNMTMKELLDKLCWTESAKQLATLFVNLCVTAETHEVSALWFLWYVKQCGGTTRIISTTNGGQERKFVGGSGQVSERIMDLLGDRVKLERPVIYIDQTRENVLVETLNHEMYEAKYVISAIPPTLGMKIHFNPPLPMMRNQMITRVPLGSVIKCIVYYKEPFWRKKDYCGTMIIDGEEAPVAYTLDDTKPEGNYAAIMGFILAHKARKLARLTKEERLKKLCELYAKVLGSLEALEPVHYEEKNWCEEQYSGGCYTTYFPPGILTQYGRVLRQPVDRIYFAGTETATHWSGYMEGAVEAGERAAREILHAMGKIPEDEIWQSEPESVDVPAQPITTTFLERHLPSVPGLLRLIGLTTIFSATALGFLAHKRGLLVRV

recombinant human MAO-A [3] = biological target: T1, recombinant human MAO-A; assay: Fluorometric kynuramine deamination assay, MAO-A inhibition; assay type: biochemical; conditions: ratio of IC50 MAO-B / MAO-A

`O=c1c(O)c(-c2cc(O)c(O)c(O)c2)oc2cc(O)cc(O)c12` [Myricetin, myricetin] was tested. Which Ki (recombinant human MAO-A [1]) did it give?
The Ki was 2.24 ± 0.25 µM.

And the “Type of Inhibition, Monoamine oxidase-A” value (recombinant human MAO-A [1])?
Its value is “Mixed/Reversible”.

And the “Type of Inhibition, Monoamine oxidase-A” value (recombinant human MAO-A [1]; listed as myricetin)?
The value was “mixed-type”.

And the “nature of binding to MAO-A (recovery of activity after dialysis)” value (recombinant human MAO-A [2])?
The value was “reversible binding; also recorded: reversible inhibition”.

What about the IC50 (recombinant human MAO-B) of the same molecule?
Its IC50 is 59.3 ± 1.78 µM.

Which results are given for `O=c1c(O)c(-c2ccc(O)c(O)c2)oc2cc(O)cc(O)c12` [Quercetin, quercetin]?
preferential MAO-A inhibition over MAO-B (fold) (recombinant human MAO-A [3]): 18 fold; Ki (recombinant human MAO-A [1]): 0.29 ± 0.03 µM; Type of Inhibition, Monoamine oxidase-A (recombinant human MAO-A [1]): Competitive/Reversible; Type of Inhibition, Monoamine oxidase-A (recombinant human MAO-A [1]; listed as quercetin): competitive; nature of binding to MAO-A (recovery of activity after dialysis) (recombinant human MAO-A [2]): reversible binding; also recorded: reversible inhibition; IC50 (recombinant human MAO-B): 28.4 ± 5.41 µM
